Assay results published in patent publication US11633421B2, “Use of NAD precursors for improving maternal health and/or offspring health” (UNIVERSITY OF IOWA RESEARCH FOUNDATION, priority 2016, dated 2023).

How the values were obtained:
[1] = system: prolactin; assay: Prolactin levels in plasma from dam; format: in vivo, mice; conditions: plasma from dam on NC or NR chow
Excerpt: (§1) FIGS. 13A-D. NR boosts prolactin circulation and mammary biosynthetic pathways for protein, fat and carbohydrate. FIG. 13A. Prolactin levels in plasma from dam on NC or NR chow. FIG. 13B. mTOR pathway is activated in NR-supplemented mammary tissue. FIG. 13C. Genes involved in lipid biosynthesis are activated in NR-supplemented mammary tissue. FIG. 13D. Genes involved in lactose synthesis pathway are activated in NR-supplemented mammary tissue. […] In addition, the size of the mammary tissue itself is greater in NR-supplemented mothers than in non-supplemented mothers (FIG. 14A).

[2] = Offspring body composition, brain mass and activity at weaning (Example 1); format: in vivo, mice
Description: Female C57BL/6N mice were raised in 12 hour light:dark cycles on Teklad 2920X chow (NC). For 12 weeks prior to mating with a single C57BL/6N male, females were on either NC (n=4) or NC+NR (n=4). Females were maintained on the same diet through gestation and weaning, which was at 21 days after birth. […] The improved body composition of mice from NR-supplemented mothers was entirely unexpected.

[3] = system: mTOR pathway; assay: phospho-mTOR in mammary tissue; format: in vivo, mice; conditions: NR-supplemented mothers
Excerpt: as §1

[4] = Pup post-fasting glucose and hepatic glycogen (post-partum maternal NR); format: in vivo, mice
Excerpt: FIGS. 17A-C. 22 day old pups of NR-supplemented mothers have improved post-fasting glucose homoeostasis with higher gluconeogenic gene expression and higher hepatic glycogen storage. Not only are the offspring of NR-supplemented mothers a bit bigger, they also have better glycemic control. This is due to better gluconeogenic gene expression and higher glycogen storage. The order of the bars from left to right are: males of normal chow (NC) mothers (white with light grey outline), followed by males of NR-supplemented mothers (filled light grey), followed by females of NC mothers (white with dark grey outline), followed by females of NR-supplemented mothers (filled dark grey). Earlier it was shown that supplementation of females during their pregnancy and during the lactation period with NR produced pups with better glycemic control. […] Particularly as NR is not directly transmitted to offspring of NR-supplemented mothers, none of these effects of maternally supplemented NR could have been anticipated.

[5] = Body composition of adult offspring; format: in vivo, mice; conditions: 90 days old
Description: FIGS. 23A-C. 69 days after their mother's intervention, 90 day-old adult offspring of NR-supplemented mothers have less fat mass. The order of the bars from left to right are: males of normal chow (NC) mothers (white with light grey outline), followed by males of NR-supplemented mothers (filled light grey), followed by females of NC mothers (white with dark grey outline), followed by females of NR-supplemented mothers (filled dark grey). At 90 days old, body composition analysis was performed on the mice. […] There is no effect on the total amount of lean mass (23C). Particularly because the maternal intervention produced somewhat bigger weanlings with more fat and lean mass, the protection against age-induced weight gain was unanticipated.

[6] = Brain size and caudate putamen of offspring; format: in vivo, mice
Excerpt: FIGS. 24A-D. 69 days after their mother's intervention, the female offspring tend to have larger brains […] (FIG. 24A). Pups of NR-supplemented moms show advanced pruning of the caudate putamen at day 22 (FIGS. 24B-C); however, the caudate putamen in pups from NR-supplemented mothers grows to a normal size in adulthood (FIG. 24D). The order of the bars from left to right are: males of normal chow (NC) mothers (white with light grey outline), followed by males of NR-supplemented mothers (filled light grey), followed by females of NC mothers (white with dark grey outline), followed by females of NR-supplemented mothers (filled dark grey). At 91 days, the mice were sacrificed and examined with respect to their brains. In FIG. 24A, it was shown that female mice from NR-supplemented mothers have larger brains in adulthood. We hypothesized that the caudate putamen, which is the motor learning center of the brain, may have developed more rapidly in mice whose mothers had been NR-supplemented either due to the increased quality and/or quantity of milk they received and/or improved maternal care.

[7] = Maternal weight gain, NR chloride in chow from 12 weeks before mating through weaning; format: in vivo; conditions: female mice, NC+NR vs NC
Excerpt: Mice are a widely used model of human metabolism because they are capable of recapitulating many aspects of human health. […] Therefore, mice were used in a series of in vivo experiments to evaluate whether maternally supplemented NR has the ability to improve maternal and/or neonatal health and development. Specifically, it was asked whether addition of NR chloride (3 g/kg of chow) to the diet of female mice would alter their health during and after pregnancy and whether this administration would produce any beneficial effects on the pups.
Female C57BL/6N mice were raised in 12 hour light:dark cycles on Teklad 2920X chow (NC). For 12 weeks prior to mating with a single C57BL/6N male, females were on either NC (n=4) or NC+NR (n=4). Females were maintained on the same diet through gestation and weaning, which was at 21 days after birth.

[8] = system: NAD biosynthetic genes in the mammary glands; assay: Mammary NAD biosynthetic gene expression and NAD metabolites; format: in vivo, mice
Excerpt: FIGS. 12A-D. Lactation and NR boost the mammary NAD program. FIG. 12A. NR promotes expression of NAD biosynthetic genes in the mammary glands. FIG. 12B. […] FIG. 12C. Lactation boosts NMN in mammary. FIG. 12D. Lactation and NR boost mammary NR in an additive manner. […] As shown in FIGS. 12B-12C, maternal NAD and NMN are elevated in the mammary of lactating mammary with respect to nonlactating mammary tissue.

SMILES: NC(=O)c1ccc[n+]([C@@H]2O[C@H](CO)[C@@H](O)[C@H]2O)c1 [NR, nicotinamide riboside]
- circulating prolactin [1]: very high levels
- physical activity of fasted neonates ([2]; NR in the diet of female mice): greater physical activity
- body composition (fat mass) of mice raised by NR-supplemented mothers ([2]; at weaning): leaner
- brain mass of mice raised by NR-supplemented mothers ([2]; at weaning): tend toward larger brains
- phosph-mTOR in mammary [3]: higher level
- post-fasting glucose homoeostasis of pups ([4]; 22 day old pups of NR-supplemented mothers): improved
- glycogen stored in liver ([4]; males and females whose mothers were NR-supplemented): stored more glycogen
- total amount of lean mass of adult offspring [5]: no effect
- body size of adult offspring ([5]; male offspring): slightly smaller
- adipose tissue of adult offspring ([5]; males and females, 69 days after mother's intervention): less adipose tissue
- brain size in adulthood ([6]; 91 days, female mice from NR-supplemented mothers): larger
- caudate putamen in adults ([6]; adult offspring): not affected
- caudate putamen pruning (area of PSD95 staining) ([6]; female weanlings): clearly advanced pruning
- caudate putamen size in weanlings ([6]; weanlings at 21 days): slightly smaller
- maternal body fat at the time of weaning [7]: tended to have lower body fat
- weight gain from the day of mating to the day of weaning ([7]; NR chloride 3 g/kg of chow): protected from this weight gain
- mammary NR ([8]; lactating female mouse, above level in lactating female): large increase
- mammary NAD+ levels ([8]; lactating mammary gland, NR supplementation): tends to further increase
- expression of NAD biosynthetic genes in lactating mammary ([8]; mother supplemented with NR): very high level of expression
